Here are results for twelve compounds from PMC11596557, “Exiguolysin, a Novel Thermolysin (M4) Peptidase from Exiguobacterium oxidotolerans” (Microorganisms, 2024).

Test [1] concerns E. oxidotolerans peptidase. Nature of the test: Casein zymography with and without 1,10-phenanthroline. Type of test: biochemical, Exiguobacterium oxidotolerans. Conditions: crude and purified samples; 1,10-phenanthroline in renaturing buffer. The protocol: Casein zymography was used to visualize protease activity in fractions collected from the Akta Prime HIC system. Samples were prepared in Laemmli buffer and run on a Tris-Glycine casein zymogram gel using the XCell SureLock™ Mini-Cell system. Following electrophoresis, gels were sectioned and renatured in Novex zyogram renaturing buffer with and without 1,10 phenanthroline (5 mM) to assess metalloprotease activity. Gels were stained, destained, and analyzed for caseinolytic peptidase activity.

Test [2] concerns E. oxidotolerans peptidase. Nature of the test: Fluorogenic substrate hydrolysis progress curves with class-specific inhibitors (purified enzyme). Type of test: biochemical, Exiguobacterium oxidotolerans. The note with it: 1,10 phenanthroline 2 mM, PMSF 0.2 mM, E-64 10 μM. As for the experimental part:
Peptidase activity was confirmed using the matrix metalloproteinase (MMP) substrate Mca-Lys-Pro-Leu-Gly-Leu-Dap-(Dnp)-Ala-Arg-NH2 (Peptides International). Class-specific inhibitors were used to determine the catalytic mechanism, including E-64 (10 μM) for cysteine proteases, 1,10 phenanthroline (2 mM) for metalloproteases, and PMSF (0.2 mM) for serine proteases. These concentrations were selected based on established guidelines for effective inhibition. Fluorescence was monitored at excitation 330 nm and emission 460 nm over a 45 min period as described previously.
Time-dependent hydrolysis of the fluorogenic substrate Mca-Lys-Pro-Leu-Gly-Leu-Dap-(Dnp)-Ala-Arg-NH2 by exiguolysin was measured in 96-well plates (total volume 100 µL) with fluorescence was measured every 30 s for 45 min using a plate reader (excitation at 330 nm and emission at 460 nm). Progress curves were generated, and kinetic parameters were determined using non-linear regression.

Test [3] relates to E. oxidotolerans protease. Nature of the test: Azocasein hydrolysis with class-specific protease inhibitors (culture supernatant). In kind it is biochemical, Exiguobacterium oxidotolerans. Conditions: 1,10-phenanthroline 2 mM, PMSF 0.2 mM, E-64 10 μM; 37 °C, 1 h; crude preparation. The protocol: Peptidase activity was quantified using azocasein hydrolysis. Conditioned media (100 µL) was mixed with 1% (w/v) azocasein in PBS and incubated at […] for 1 h. The reaction was quenched by adding 400 µL of 5% trifluoroacetic acid (TFA), and the mixture was centrifuged at 13,000 rpm for 10 min. Absorbance of the supernatant was measured at 440 nm to determine protease activity. Units of protease activity were calculated as previously described by Loomes et al..
Overnight cultures were centrifuged (4000 rpm, 4 °C, 12 min), and the supernatant was filtered through a 0.45 µm nitrocellulose membrane. Protease activity was evaluated by incubating 100 µL of supernatant with 1% azocasein at 37 °C for 1 h. The reaction was quenched with 400 µL of TFA, and absorbance was measured at 440 nm. Protease mechanistic class was determined by incubating the supernatant with 2 mM 1,10-phenanthroline (metalloprotease inhibitor), 0.2 mM PMSF (serine protease inhibitor), and 10 µM E-64 (cysteine protease inhibitor) prior to azocasein hydrolysis.

Test [4] deals with thermolysin-like protease of E. oxidotolerans (exiguolysin) (Exiguobacterium oxidotolerans, UniProt A0A653I866). Nature of the test: Inhibitor screening and Ki determination, fluorogenic MMP substrate assay. Conditions: fluorogenic substrate hydrolysis, 37 °C; Morrison equation for tight-binding inhibitors; Km 14.20 µM; read-out: True Ki. In kind it is biochemical. The protocol:
The inhibition of protease activity was screened using a 20 × 20 library of N-alpha dipeptide mercaptoamide inhibitors as previously described by Cathcart et al., and the half-maximal inhibitory constant (Ki) values were determined. In order to determine Michaelis–Menten constant, Km, of the fluorogenic substrate, exiguolysin (previously purified by HIC, final concentration 5 units/well) was added to wells of a 96-well black microtitre plate (Nunc); the volume was adjusted to 75 µL in assay buffer (25 mM Tris, 2.5 mM CaCl2, pH 7.0), and fluorogenic substrate (25 µL) was added at concentrations of 0, 1, 10, 25, 50, 100 and 200 µM. Time-dependent hydrolysis of the fluorogenic substrate was measured (excitation/emission […] nm) every 30 s for 30 min. The Km is determined using the Michealis–Menten equation, by plotting the rate of substrate hydrolysis against substrate concentration.
Initially, each inhibitor was tested at a final concentration of 100 µM in a broad-spectrum screen, employing a standard fluorogenic substrate assay using Mca-Lys-Pro-Leu-Gly-Leu-Dap-(Dnp)-Ala-Arg-NH2. Enzyme reactions were carried out in a 96-well black plate at 37 °C, and fluorescence was monitored as described above.

The next test concerns the target T1, PAR-1 (Homo sapiens, UniProt P25116).
T1 construct: calcium mobilization in PC-3 cells (expressing PAR1); endogenous in cells; host or cells: PC-3
T1 sequence (P25116 22-425): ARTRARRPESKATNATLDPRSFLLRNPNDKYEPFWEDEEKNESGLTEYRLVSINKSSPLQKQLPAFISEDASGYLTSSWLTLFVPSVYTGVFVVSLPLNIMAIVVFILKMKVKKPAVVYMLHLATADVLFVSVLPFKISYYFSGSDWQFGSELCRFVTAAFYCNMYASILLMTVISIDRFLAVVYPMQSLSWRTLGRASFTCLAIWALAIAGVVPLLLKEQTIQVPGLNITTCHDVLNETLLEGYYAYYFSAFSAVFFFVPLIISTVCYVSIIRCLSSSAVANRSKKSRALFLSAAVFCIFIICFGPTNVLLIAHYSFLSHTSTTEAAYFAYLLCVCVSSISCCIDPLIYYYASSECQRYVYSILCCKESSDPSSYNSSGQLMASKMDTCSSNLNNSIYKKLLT
Nature of the test: Calcium mobilization assay in PC-3 cells (Fluo-4 AM). In kind it is cell-based. Conditions: protease pre-incubated with inhibitor, thrombin-induced activation. As for the experimental part:
Calcium mobilization in PC-3 and HCT15 cells was assessed using the fluorescent calcium indicator Fluo-4 AM (ThermoFisher, UK). Cells were cultured in RPMI-1640 medium with 10% fetal bovine serum and antibiotics, maintained at 37 °C with 5% CO2. Cells were seeded in 96-well plates and incubated with 5 μM Fluo-4 AM for 30 min at 37 °C. After washing, cells were treated with 5 units/well of thermolysin-like protease or the agonists TFLLRN (PAR-1) and SLIGKV (PAR-2). Intracellular calcium changes were monitored using a BMG Fluostar plate reader (excitation: 494 nm, emission: 516 nm).

Chain of thermolysin-like protease of E. oxidotolerans (exiguolysin) (A0A653I866 entry or part of it): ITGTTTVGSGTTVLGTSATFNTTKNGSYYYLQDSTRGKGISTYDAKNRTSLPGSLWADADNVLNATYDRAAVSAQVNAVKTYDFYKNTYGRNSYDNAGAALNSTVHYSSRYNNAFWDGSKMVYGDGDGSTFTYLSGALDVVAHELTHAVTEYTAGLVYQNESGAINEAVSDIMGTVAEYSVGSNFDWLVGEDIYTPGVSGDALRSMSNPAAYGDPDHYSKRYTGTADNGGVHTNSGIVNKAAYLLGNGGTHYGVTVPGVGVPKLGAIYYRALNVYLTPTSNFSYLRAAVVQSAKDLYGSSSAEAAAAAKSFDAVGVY

As for `c1cnc2c(c1)ccc1cccnc12` [1,10-phenanthroline], the “Inhibition of proteolytically active bands in zymogram” value in test [1] is “inhibited”. In test [2], the “Inhibition of hydrolysis of Mca-Lys-Pro-Leu-Gly-Leu-Dap-(Dnp)-Ala-Arg-NH2 (progress curves)” value (shortened to “Inhibition of hydrolysis … (progress curves)”) was “significantly inhibited”. Further, the “Inhibition of azocasein hydrolysis” value in test [3] is listed as “significantly reduced protease activity”.
For the compound `CC(C)C[C@H](NC(=O)[C@H]1O[C@@H]1C(=O)O)C(=O)NCCCCN=C(N)N` [Inhibitor E-64, E-64], the “Inhibition of hydrolysis … (progress curves)” value in test [2] was “minimal effects”. In addition, the “Inhibition of azocasein hydrolysis” value in test [3] is on record as “partial inhibition”.
Consider `NCCCCC(NC(=O)C(CC(N)=O)NC(=O)CS)C(N)=O` (stereo not drawn) [Me-Asn-Lys-NH2], for which the inhibition constant Ki in test [4] came to 20.9 µM.
On the same count and under the same terms, to `NC(=O)CC(NC(=O)CS)C(=O)NC(Cc1c[nH]c2ccccc12)C(N)=O` (stereo not drawn) [Me-Asn-Trp-NH2] belongs 4.35 µM.
The same measure, in the same setting: to `NC(=O)CC(NC(=O)CS)C(=O)NC(Cc1ccc(O)cc1)C(N)=O` (stereo not drawn) [Me-Asn-Tyr-NH2] belongs 5.71 µM; to `CCC(C)C(NC(=O)C(NC(=O)CS)C(C)CC)C(N)=O` (stereo not drawn) [Me-Ile-Ile-NH2], 11.2 µM.
On the same count and under the same terms, to `CCC(C)C(NC(=O)CS)C(=O)NC(C(N)=O)C(C)C` (stereo not drawn) [Me-Ile-Val-NH2] belongs 8.33 µM; to `CSCCC(NC(=O)CS)C(=O)NC(Cc1ccc(O)cc1)C(N)=O` (stereo not drawn) [Me-Met-Tyr-NH2, SH-CH2-CO-Met-Tyr-NH2], 1.95 µM.
`N=C(N)NCCCC(NC(=O)C1CCCN1C(=O)CS)C(N)=O` (stereo not drawn) [Me-Pro-Arg-NH2, SH-CH2-CO-Pro-Arg-NH2]: the “Reversal of the protease's PAR-1 disarming effect” value on PAR-1 is “reversed”. Further, the Ki in test [4] was 3.97 µM.
As for `NC(=O)C(Cc1ccccc1)NC(=O)C(Cc1ccc(O)cc1)NC(=O)CS` (stereo not drawn) [Me-Tyr-Phe-NH2], the inhibitory constant (Ki) in test [4] came to 5.52 µM.
On the same count and under the same terms, to `CC(C)C(NC(=O)C(NC(=O)CS)C(C)C)C(N)=O` (stereo not drawn) [Me-Val-Val-NH2] belongs 3.21 µM.
With `O=S(=O)(F)Cc1ccccc1` [PMSF], the “Inhibition of hydrolysis … (progress curves)” value in test [2] was “minimal effects”. Besides, the “Inhibition of azocasein hydrolysis” value in test [3] was “Slight inhibition”.
